Patent publication US12391680B2, “Compounds and compositions for the treatment of cystic fibrosis” (FONDAZIONE ISTITUTO ITALIANO DI TECNOLOGIA, priority 2019, dated 2025)

Assays:
Format in all cases: cell-based
mutant CFTR = mutant CFTR (Homo sapiens, UniProt P13569); test: Fluorescence assay for CFTR activity (halide-sensitive YFP, HS-YFP); details: CFBE41o- and FRT cells with stable expression of mutant CFTR
Protocol: Mutant CFTR activity was determined with the functional assay based on the halide-sensitive yellow fluorescent protein, HS—YFP (Galietta et al., FEBS Lett 499:220-224, 2001). CFBE41o- and FRT cells with stable expression of mutant CFTR and HS—YFP were plated on clear-bottom 96-well black microplates (Code 3603, Corning Life Sciences) at a density of 50,000 cells/well and kept at 37° C. in 5% CO2 for 24 hours.
For the corrector assay, cells were treated for further 24 hours with test compounds, vehicle (DMSO), or the positive control VX-809. After treatment, the culture medium was removed and cells in each well were stimulated for 30 min at 37° C. with 60 μL PBS (containing 137 mM NaCl, 2.7 mM KCl, 8.1 mM Na2HPO4, 1.5 mM KH2PO4, 1 mM CaCl2, and 0.5 mM MgCl2) plus forskolin (20 μM) and genistein (50 μM).
For determination of potentiator activity on F508del-CFTR, cells were incubated for 24 hours at 27° C. to allow trafficking of the mutant protein to plasma membrane. Cells were then stimulated with for 30 min with PBS containing forskolin (20 μM) plus the compound to be tested at the desired concentration. For determination of potentiator activity on G551D-CFTR or G1349D-CFTR, cells were directly stimulated with forskolin plus test compound without previous incubation at low temperature. At the time of assay, microplates carrying CFBE41o- or FRT cells were transferred to microplate readers (BMG Labtech) equipped with high-quality excitation (HQ500/20×: 500±10 nm) and emission (HQ535/30M: 535±15 nm) filters for YFP (Chroma Technology). The assay consisted of a continuous 14 s fluorescence reading with 2 s before and 12 s after injection of an iodide-containing solution (165 μL of a modified PBS containing I^− instead of Cl^−; final I^− concentration in the well: 100 mM). Data were normalized to the initial background-subtracted fluorescence. Enhanced CFTR activity, induced by correctors and/or potentiators, results in accelerated I^− influx that in turn causes faster HS—YFP quenching (Pedemonte et al., Mol Pharmacol 68:1736-1746, 2005; Pedemonte et al., J Clin Invest 115:2564-2571, […]). To determine fluorescence quenching rate associated with I^− influx, the final 10 s of data for each well were fitted with an exponential function to extrapolate initial slope (dF/dt).
EC50 obtained are illustrated in Table 1 wherein+: EC50>2 μM; ++: 1.0 μM <EC50<2 μM; +++: EC50<1 μM.

F508del-CFTR [1] = target: T1, F508del-CFTR (Homo sapiens, UniProt P13569, DEL508-508); test: Short-circuit current recordings on human bronchial epithelial cells from CF patients (F508del/F508del); parameters: Human bronchial epithelial (HBE) cells obtained from CF patients (F508del/F508del genotype); endogenous in cells; host or cells: primary human bronchial epithelial cells from CF patients, F508del/F508del; details: HBE cells F508del/F508del, 24 hrs treatment, CPT-cAMP plus VX-770 minus CFTRinh-172
T1 sequence (P13569 with tags, fused parts or gaps DEL508-508): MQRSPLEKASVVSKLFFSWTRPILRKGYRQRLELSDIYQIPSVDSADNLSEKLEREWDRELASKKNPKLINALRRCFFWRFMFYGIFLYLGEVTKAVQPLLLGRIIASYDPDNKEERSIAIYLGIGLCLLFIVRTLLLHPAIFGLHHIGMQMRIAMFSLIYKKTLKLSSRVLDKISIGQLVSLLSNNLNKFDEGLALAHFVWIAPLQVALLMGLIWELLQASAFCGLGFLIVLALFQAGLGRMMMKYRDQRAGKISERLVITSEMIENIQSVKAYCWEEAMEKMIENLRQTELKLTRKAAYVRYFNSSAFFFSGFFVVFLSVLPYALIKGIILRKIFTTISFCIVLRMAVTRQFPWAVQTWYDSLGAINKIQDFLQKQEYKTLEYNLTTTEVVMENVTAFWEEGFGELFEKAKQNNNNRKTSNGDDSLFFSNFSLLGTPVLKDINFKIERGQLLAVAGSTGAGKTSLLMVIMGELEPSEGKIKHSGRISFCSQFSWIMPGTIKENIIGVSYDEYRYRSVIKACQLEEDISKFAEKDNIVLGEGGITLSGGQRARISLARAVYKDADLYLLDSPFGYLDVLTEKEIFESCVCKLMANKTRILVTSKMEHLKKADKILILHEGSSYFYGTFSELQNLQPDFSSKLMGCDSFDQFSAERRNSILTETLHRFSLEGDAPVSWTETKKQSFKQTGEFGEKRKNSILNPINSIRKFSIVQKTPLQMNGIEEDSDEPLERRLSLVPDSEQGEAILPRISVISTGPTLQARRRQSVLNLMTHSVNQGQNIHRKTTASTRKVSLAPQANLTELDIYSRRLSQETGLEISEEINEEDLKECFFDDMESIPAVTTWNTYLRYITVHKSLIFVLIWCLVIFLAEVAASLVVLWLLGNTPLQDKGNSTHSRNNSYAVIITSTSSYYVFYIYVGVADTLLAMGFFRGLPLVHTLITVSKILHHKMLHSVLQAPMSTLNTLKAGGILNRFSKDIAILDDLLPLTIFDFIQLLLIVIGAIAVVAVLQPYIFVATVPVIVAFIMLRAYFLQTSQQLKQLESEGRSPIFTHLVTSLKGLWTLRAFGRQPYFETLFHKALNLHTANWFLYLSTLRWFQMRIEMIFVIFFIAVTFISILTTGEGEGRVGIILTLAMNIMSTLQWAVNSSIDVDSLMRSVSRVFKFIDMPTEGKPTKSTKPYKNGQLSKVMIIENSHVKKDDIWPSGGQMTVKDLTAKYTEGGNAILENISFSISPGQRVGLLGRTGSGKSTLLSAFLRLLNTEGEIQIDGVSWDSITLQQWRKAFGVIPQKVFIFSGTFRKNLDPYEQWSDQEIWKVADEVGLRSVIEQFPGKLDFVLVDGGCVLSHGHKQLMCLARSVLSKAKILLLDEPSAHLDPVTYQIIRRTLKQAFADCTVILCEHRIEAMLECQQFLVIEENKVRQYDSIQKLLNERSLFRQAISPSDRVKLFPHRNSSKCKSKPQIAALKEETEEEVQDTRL
Protocol: Human bronchial epithelial (HBE) cells obtained from CF patients (F508del/F508del genotype) were plated on Snapwell inserts (Code 3801, Corning Life Sciences) at a density of 500,000 cells per insert. Cells were cultured for two weeks in a differentiating medium whose compositions has been previously described (Scudieri et al., J Physiol 590:6141-6155, 2012). For the first week, the medium was kept on both apical and basolateral sides of inserts (submerged condition). For the second week, the apical medium was removed (air-liquid condition, ALC). To test the activity of correctors, cells were treated for 24 hrs with compounds dissolved in the basolateral medium. After treatment, Snapwell inserts carrying differentiated bronchial epithelia were mounted in a vertical chamber resembling an Ussing system with internal fluid circulation. Both apical and basolateral hemichambers were filled with 5 mL of a Krebs bicarbonate solution containing (in mM): 126 NaCl, 0.38 KH2PO4, 2.13 K2HPO4, 1 MgSO4, 1 CaCl2, 24 NaHCO3, and 10 glucose. Both sides were continuously bubbled with a gas mixture containing 5% CO2-95% air and the temperature of the solution was kept at 37° C. The transepithelial voltage was short-circuited with a voltage-clamp (DVC-1000, World Precision Instruments) connected to the apical and basolateral chambers via Ag/AgCl electrodes and agar bridges (1 M KCl in 1% agar). The offset between voltage electrodes and the fluid resistance were canceled before experiments. The short-circuit current was recorded with a PowerLab 4/25 (ADInstruments) analogical to digital converter connected to a Macintosh computer. […] The difference between the current measured with CPT-cAMP plus potentiator and the current remaining after CFTRinh-172 treatment (ΔICFTR) was taken as the parameter reflecting F508del-CFTR expression in the apical membrane.
Activities of selected compounds on HBE cells (expressed as ΔICFTR) are illustrated in Table 3 wherein+: ΔICFTR<2.0 μA; ++: 2.0 μA<ΔICFTR<3.0 μA; +++: ΔICFTR >3.0 μA.

F508del-CFTR [2] = target: T1, F508del-CFTR; test: Transepithelial electrical conductance (TEEC) in FRT cells expressing F508del-CFTR; parameters: expressed in transfected cells; host or cells: FRT cells; details: tested at 5.0 μM, 24 hrs incubation
Protocol: FRT cells expressing F508del-CFTR were plated on HTS Transwell-24 well permeable supports (Code 3379, Corning Life Sciences) at a density of 200,000 cells/well. After six days, cells were incubated for 24 hrs with test correctors, vehicle, or VX-809. Compounds were dissolved in both basolateral (800 μL) and apical (300 μL) culture medium. After treatment, the culture medium was removed and replaced on both sides with a saline solution containing (in mM): 130 NaCl, 2.7 KCl, 1.5 KH2PO4, 1 CaCl2, 0.5 MgCl2, 10 glucose, 10 Na-Hepes (pH 7.4). The basolateral and apical side received 800 μL and 100 μL, respectively. The 24-well tray with cells was placed on a block heater (SBH 130D, Stuart) to keep the temperature at 37° C. during the entire experiment. After 10 min, the basal transepithelial electrical resistance (TEER) across each layer of FRT cells was measured with a STX100C electrode pair connected to an EVOM2 voltohmeter (World Precision Instruments). To stimulate F508del-CFTR, each well received (apical side) 50 μL of saline solution containing 60 μM forskolin and 150 μM genistein (final concentrations: 20 μM forskolin, 50 μM genistein). Forskolin was also pipetted in the basolateral medium to obtain the 20 μM concentration. After 10 min TEER was measured again in each well. To block F508del-CFTR function, the inhibitor PPQ-102 was used at the final concentration of 30 μM. To achieve the desired concentration, 75 μL of the apical solution in each well was replaced with an equal volume of saline solution containing 20 μM forskolin, 50 μM genistein, and 60 μM PPQ-102. After further 10 min, the transepithelial electrical resistance was measured. All values of TEER were converted to transepithelial electrical conductance (TEEC) using the formula TEEC=1/TEER. The parameter to indicate activity of F508del-CFTR in each well (ATEEC) was calculated from the difference in TEEC measured after maximal stimulation of F508del-CFTR with forskolin and genistein and after block with PPQ-102.
Corrector activities obtained on selected compounds tested at 5.0 μM (expressed as ΔTEEC values) are illustrated in Table 2, wherein+: ΔTEEC<2000 μS; ++: 2000 μS <ΔTEEC<3000ρS; +++: ΔTEEC>3000 μS.

Sequence of mutant CFTR (P13569 with tags, fused parts or gaps DEL508-508): as above

Row | EC50 (mutant CFTR) [nM] | activity (ΔICFTR) (F508del-CFTR [1]) | activity (corrector activity expressed as ΔTEEC) (F508del-CFTR [2]) | SMILES
1 | < 1000 | ++ (2.0 μA<ΔICFTR<3.0 μA) | – | NC(=O)c1sc2ccccc2c1C1CN(S(=O)(=O)c2ccc3c(c2)OCCO3)CCO1 (racemic) [compound 018, rac-3-[(4-(2,3-dihydro-1,4-benzodioxin-6-ylsulfonyl)morpholin-2-yl]benzothiophene-2-carboxamide]
2 | < 1000 | – | ++ (2000 μS <ΔTEEC<3000ρS) | NC(=O)c1sc2ccccc2c1C1CN(S(=O)(=O)c2ccc(OC(F)(F)F)cc2)CCO1 (racemic) [compound 039, rac-3-[4-[4-(trifluoromethoxy)phenyl]sulfonylmorpholin-2-yl]benzothiophene-2-carboxamide]
3 | 1000 to 2000 | ++ (2.0 μA<ΔICFTR<3.0 μA) | – | Cc1cc(S(=O)(=O)N2CCOC(c3c(C(N)=O)sc4ccccc34)C2)ccc1C(F)(F)F (racemic) [compound 044, rac-3-[4-[3-methyl-4-(trifluoromethyl)phenyl]sulfonylmorpholin-2-yl]benzothiophene-2-carboxamide]
4 | > 2000 | ++ (2.0 μA<ΔICFTR<3.0 μA) | – | Cc1cc(S(=O)(=O)N2CCO[C@H](c3c(C(N)=O)sc4ccccc34)C2)ccc1F (single isomer, unassigned) [compound 013]
5 | > 2000 | – | + (ΔTEEC<2000 μS) | NC(=O)c1sc2ccccc2c1[C@@H]1CN(S(=O)(=O)c2ccc(C(F)(F)F)cc2)CCO1 (single isomer, unassigned) [compound 042]
6 | < 1000 | – | +++ (ΔTEEC>3000 μS) | NC(=O)c1sc2ccccc2c1[C@H]1CN(S(=O)(=O)c2ccc(C(F)(F)F)cc2)CCO1 (single isomer, unassigned) [compound 043]
7 | > 2000 | – | – | NC(=O)c1sc2ccccc2c1[C@H]1CN(S(=O)(=O)c2ccc(C(F)(F)F)c(F)c2)CCO1 (single isomer, unassigned) [compound 055]
8 | < 1000 | – | – | NC(=O)c1sc2ccccc2c1C1CN(S(=O)(=O)c2ccc(C(F)(F)F)c(F)c2)CCO1 (single isomer, unassigned) [compound 056]
9 | > 2000 | – | – | Cc1nc2ccc(S(=O)(=O)N3CCO[C@@H](c4c(C(N)=O)sc5ccccc45)C3)cc2o1 (single isomer, unassigned) [compound 070]
10 | < 1000 | +++ (ΔICFTR >3.0 μA) | – | Cc1nc2ccc(S(=O)(=O)N3CCO[C@H](c4c(C(N)=O)sc5ccccc45)C3)cc2o1 (single isomer, unassigned) [compound 071]
11 | > 2000 | – | – | Cc1ccc(S(=O)(=O)N2CCO[C@@H](c3c(C(N)=O)sc4ccccc34)C2)cc1F (single isomer, unassigned) [compound 072]
12 | < 1000 | – | – | Cc1ccc(S(=O)(=O)N2CCO[C@H](c3c(C(N)=O)sc4ccccc34)C2)cc1F (single isomer, unassigned) [compound 073]
13 | > 2000 | – | – | CNC(=O)c1sc2ccccc2c1C1CN(S(=O)(=O)c2c(C)noc2C)CCO1 (centres unmarked) [compound 075, 3-[4-(3,5-dimethyl-isoxazole-4-sulfonyl)-morpholin-2-yl]-benzo[b]thiophene-2-carboxylic acid methylamide]
14 | > 2000 | – | – | CC(C)NC(=O)c1sc2ccccc2c1C1CN(S(=O)(=O)c2cnn(C)c2)CCO1 (centres unmarked) [compound 076, 3-[4-(1-methyl-1H-pyrazole-4-sulfonyl)-morpholin-2-yl]-benzo[b]thiophene-2-carboxylic acid isopropylamide]
15 | > 2000 | – | – | CN(C)C(=O)c1sc2ccccc2c1C1CN(S(=O)(=O)C2CCCC2)CCO1 (centres unmarked) [compound 078, 3-[4-(cyclopentylsulfonyl)-2-morpholinyl]-N,N-dimethyl-1-benzothiophene-2-carboxamide]
16 | > 2000 | – | – | Cc1c(S(=O)(=O)N2CCOC(c3c(C(=O)N(C)C)sc4ccccc34)C2)cnn1C (centres unmarked) [compound 079, 3-{4-[(1,5-dimethyl-1H-pyrazol-4-yl)sulfonyl]-2-morpholinyl}-N,N-dimethyl-1-benzothiophene-2-carboxamide]
17 | > 2000 | – | – | O=C(NCCO)c1sc2ccccc2c1C1CN(S(=O)(=O)c2ccccc2)CCO1 (centres unmarked) [compound 080, N-(2-hydroxyethyl)-3-[4-(phenylsulfonyl)-2-morpholinyl]-1-benzothiophene-2-carboxamide]
18 | > 2000 | – | – | CNC(=O)c1sc2ccccc2c1C1CN(S(=O)(=O)C2CCCC2)CCO1 (centres unmarked) [compound 081, 3-(4-cyclopentanesulfonyl-morpholin-2-yl)-benzo[b]thiophene-2-carboxylic acid methylamide]
19 | > 2000 | – | – | Cc1n[nH]c(C)c1S(=O)(=O)N1CCOC(c2c(C(=O)N(C)C)sc3ccccc23)C1 (centres unmarked) [compound 083, 3-{4-[(3,5-dimethyl-1H-pyrazol-4-yl)sulfonyl]-2-morpholinyl}-N,N-dimethyl-1-benzothiophene-2-carboxamide]
